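Five concentrations, 48 hours, 96-well plates. GI50 is the concentration that inhibits growth by half.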 The source made the active and inactive calls. Cut-off read from the data, not from the text of the source: active = GI50 up to about 1.1 µM and inactive = higher.
Key:
Assay in all cases: NCI anticancer screen, dose series, 48 h
MOLT-4 = tested on: MOLT-4
OVCAR-4 = tested on: OVCAR-4
MDA-MB-231 = tested on: MDA-MB-231
OVCAR-3 = tested on: OVCAR-3
BT-549 = tested on: BT-549
UACC-257 = tested on: UACC-257
SNB-75 = tested on: SNB-75
DU-145 = tested on: DU-145
HOP-62 = tested on: HOP-62
TK-10 = tested on: TK-10
HT-29 = tested on: HT-29
SK-MEL-28 = tested on: SK-MEL-28
OVCAR-5 = tested on: OVCAR-5
PC-3 = tested on: PC-3
Hs-578T = tested on: Hs-578T
SK-MEL-5 = tested on: SK-MEL-5
MDA-N = tested on: MDA-N
UACC-62 = tested on: UACC-62
SF-268 = tested on: SF-268
SF-539 = tested on: SF-539
MCF7 = tested on: MCF7
HCC 2998 = tested on: HCC 2998
U-251 = tested on: U-251
EKVX = tested on: EKVX
IGROV-1 = tested on: IGROV-1
SNB-19 = tested on: SNB-19
RXF 393 = tested on: RXF 393
HL-60 = tested on: HL-60
COLO 205 = tested on: COLO 205
HCT-116 = tested on: HCT-116
ACHN = tested on: ACHN
786-0 = tested on: 786-0
LOX IMVI = tested on: LOX IMVI
SF-295 = tested on: SF-295
HOP-92 = tested on: HOP-92
NCI-H460 = tested on: NCI-H460
T47D = tested on: T47D
K562 = tested on: K562
MDA-MB-435 = tested on: MDA-MB-435
NCI-H226 = tested on: NCI-H226
SK-MEL-2 = tested on: SK-MEL-2
NCI-H522 = tested on: NCI-H522
OVCAR-8 = tested on: OVCAR-8
HCT-15 = tested on: HCT-15
CCRF-CEM = tested on: CCRF-CEM
SW-620 = tested on: SW-620
KM12 = tested on: KM12
NCI-H23 = tested on: NCI-H23
A549 = tested on: A549
NCI/ADR-RES = tested on: NCI/ADR-RES
SN12C = tested on: SN12C
UO-31 = tested on: UO-31
M14 = tested on: M14
SK-OV-3 = tested on: SK-OV-3
CAKI-1 = tested on: CAKI-1
A498 = tested on: A498
Malme-3M = tested on: Malme-3M
RPMI-8226 = tested on: RPMI-8226

In the case of `COc1ccc(/C=C2\N=C3N(Cc4ccccc4)C=C(N)N3C2=O)cc1`, the GI50 (MOLT-4) is reported as > 100 µM (inactive), the GI50 (OVCAR-4) is reported as > 100 µM (inactive) and the GI50 (MDA-MB-231) is reported as 36.2 µM (inactive). For the same molecule, the GI50 (OVCAR-3) was > 100 µM (inactive), the GI50 (BT-549) was 32.9 µM (inactive) and the GI50 (UACC-257) was 30.8 µM (inactive). The GI50 (SNB-75) was 17.5 µM (inactive), the GI50 (DU-145) was > 100 µM (inactive) and the GI50 (HOP-62) was 39.3 µM (inactive). The GI50 (TK-10) was > 100 µM (inactive), the GI50 (HT-29) was > 100 µM (inactive) and the GI50 (SK-MEL-28) was > 100 µM (inactive). The GI50 (OVCAR-5) was 82.8 µM (inactive), the GI50 (PC-3) was > 100 µM (inactive) and the GI50 (Hs-578T) was 28.8 µM (inactive). For the same molecule, the GI50 (SK-MEL-5) was 46.7 µM (inactive), the GI50 (MDA-N) was > 100 µM (inactive) and the GI50 (UACC-62) was > 100 µM (inactive). For the same molecule, the GI50 (SF-268) was > 100 µM (inactive), the GI50 (SF-539) was > 100 µM (inactive) and the GI50 (MCF7) was > 100 µM (inactive). The GI50 (HCC 2998) was > 100 µM (inactive), the GI50 (U-251) was 30.3 µM (inactive) and the GI50 (EKVX) was 59.4 µM (inactive). The GI50 (IGROV-1) was 69.3 µM (inactive), the GI50 (SNB-19) was 20.8 µM (inactive) and the GI50 (RXF 393) was > 100 µM (inactive). For the same molecule, the GI50 (HL-60) was 55 µM (inactive), the GI50 (COLO 205) was > 100 µM (inactive) and the GI50 (HCT-116) was > 100 µM (inactive). For the same molecule, the GI50 (ACHN) was > 100 µM (inactive), the GI50 (786-0) was 52.7 µM (inactive) and the GI50 (LOX IMVI) was > 100 µM (inactive). The GI50 (SF-295) was 61.2 µM (inactive), the GI50 (HOP-92) was 58.7 µM (inactive) and the GI50 (NCI-H460) was > 100 µM (inactive). For the same molecule, the GI50 (T47D) was > 100 µM (inactive), the GI50 (K562) was > 100 µM (inactive) and the GI50 (MDA-MB-435) was > 100 µM (inactive). The GI50 (NCI-H226) was 55 µM (inactive), the GI50 (SK-MEL-2) was > 100 µM (inactive) and the GI50 (NCI-H522) was 49.1 µM (inactive). For the same molecule, the GI50 (OVCAR-8) was 64.6 µM (inactive), the GI50 (HCT-15) was > 100 µM and the GI50 (CCRF-CEM) was 89.5 µM (inactive). For the same molecule, the GI50 (SW-620) was > 100 µM (inactive), the GI50 (KM12) was > 100 µM (inactive) and the GI50 (NCI-H23) was > 100 µM (inactive). For the same molecule, the GI50 (A549) was > 100 µM (inactive), the GI50 (NCI/ADR-RES) was > 100 µM (inactive) and the GI50 (SN12C) was > 100 µM (inactive). The GI50 (UO-31) was 46.6 µM (inactive), the GI50 (M14) was > 100 µM (inactive) and the GI50 (SK-OV-3) was 37.2 µM (inactive). The GI50 (CAKI-1) was > 100 µM (inactive), the GI50 (A498) was 88.1 µM (inactive) and the GI50 (Malme-3M) was > 100 µM (inactive).

For `CN1[C@@H]2CCCC[C@H]2N(C)P1(=O)C(O)/C=C/c1ccccc1` (some centres undefined), the GI50 (MOLT-4) was > 100 µM (inactive), the GI50 (OVCAR-4) was > 100 µM (inactive) and the GI50 (MDA-MB-231) was > 100 µM (inactive). For the same molecule, the GI50 (OVCAR-3) was > 100 µM (inactive), the GI50 (BT-549) was > 100 µM (inactive) and the GI50 (UACC-257) was > 100 µM (inactive). For the same molecule, the GI50 (SNB-75) was > 100 µM (inactive), the GI50 (DU-145) was > 100 µM (inactive) and the GI50 (HOP-62) was > 100 µM (inactive). The GI50 (TK-10) was > 100 µM (inactive), the GI50 (HT-29) was > 100 µM (inactive) and the GI50 (SK-MEL-28) was > 100 µM (inactive). The GI50 (OVCAR-5) was > 100 µM (inactive), the GI50 (PC-3) was > 100 µM (inactive) and the GI50 (Hs-578T) was > 100 µM (inactive). The GI50 (SK-MEL-5) was > 100 µM (inactive), the GI50 (MDA-N) was > 100 µM (inactive) and the GI50 (UACC-62) was > 100 µM (inactive). The GI50 (SF-268) was > 100 µM (inactive), the GI50 (RPMI-8226) was > 100 µM (inactive) and the GI50 (MCF7) was > 100 µM (inactive). For the same molecule, the GI50 (HCC 2998) was > 100 µM (inactive), the GI50 (U-251) was > 100 µM (inactive) and the GI50 (EKVX) was > 100 µM (inactive). For the same molecule, the GI50 (IGROV-1) was > 100 µM (inactive), the GI50 (SNB-19) was > 100 µM (inactive) and the GI50 (RXF 393) was > 100 µM (inactive). For the same molecule, the GI50 (HL-60) was > 100 µM (inactive), the GI50 (COLO 205) was > 100 µM (inactive) and the GI50 (HCT-116) was > 100 µM (inactive). The GI50 (ACHN) was > 100 µM (inactive), the GI50 (786-0) was > 100 µM (inactive) and the GI50 (LOX IMVI) was > 100 µM (inactive). For the same molecule, the GI50 (SF-295) was > 100 µM (inactive), the GI50 (HOP-92) was > 100 µM (inactive) and the GI50 (NCI-H460) was > 100 µM (inactive). The GI50 (T47D) was > 100 µM (inactive), the GI50 (K562) was > 100 µM (inactive) and the GI50 (MDA-MB-435) was > 100 µM (inactive). The GI50 (NCI-H226) was > 100 µM (inactive), the GI50 (SK-MEL-2) was > 100 µM (inactive) and the GI50 (NCI-H522) was > 100 µM (inactive). The GI50 (OVCAR-8) was > 100 µM (inactive), the GI50 (HCT-15) was > 100 µM and the GI50 (CCRF-CEM) was > 100 µM (inactive). The GI50 (SW-620) was > 100 µM (inactive), the GI50 (KM12) was > 100 µM (inactive) and the GI50 (NCI-H23) was > 100 µM (inactive). The GI50 (A549) was > 100 µM (inactive), the GI50 (NCI/ADR-RES) was > 100 µM (inactive) and the GI50 (SN12C) was > 100 µM (inactive). The GI50 (UO-31) was > 100 µM (inactive), the GI50 (M14) was > 100 µM (inactive) and the GI50 (SK-OV-3) was > 100 µM (inactive). The GI50 (CAKI-1) was > 100 µM (inactive), the GI50 (A498) was > 100 µM (inactive) and the GI50 (Malme-3M) was > 100 µM (inactive).

— ChEMBL document CHEMBL1201862, “PubChem BioAssay data set” (2004)
